Earlier results, collected in US20100015233A1, “anti-parasitic compositions” (priority 2006, published 2010).
≈ marks a conversion by molar mass, not a printed value.

Tests used:
[1] = in vivo

Row | half-life [1] [h] | solubility in water [µg/mL] | Compound
1 | 72 to 140 | – | CCCCN(CCCC)CC(O)c1cc(Cl)cc2c1-c1ccc(Cl)cc1/C2=C/c1ccc(Cl)cc1 (centres unmarked) [Lumefantrine]
2 | – | 84 (≈ 298 µM) | C[C@@H]1CC[C@H]2[C@@H](C)C(=O)O[C@@H]3O[C@@]4(C)CC[C@@H]1[C@]32OO4 [artemisinin]
